Measured values published in ChEMBL document CHEMBL4004838, “Design and synthesis of novel phenyl -1, 4-beta-carboline-hybrid molecules as potential anticancer agents” (Eur J Med Chem, 2017).

Columns and labels:
Assay type in all cases: functional
RPMI-8226 = test: Growth inhibition of human RPMI8226 cells incubated for 48 hrs by sulforhodamine B assay; settings: RPMI-8226, 48 h
NCI-H226 [1] = test: Growth inhibition of human NCI-H226 cells incubated for 48 hrs by sulforhodamine B assay; settings: NCI-H226, 48 h
SW-620 = test: Growth inhibition of human SW620 cells incubated for 48 hrs by sulforhodamine B assay; settings: SW-620, 48 h
SF-295 = test: Growth inhibition of human SF295 cells incubated for 48 hrs by sulforhodamine B assay; settings: SF-295, 48 h
Malme-3M [2] = test: Growth inhibition of human MALME-3M cells incubated for 48 hrs by sulforhodamine B assay
MDA-MB-435 = test: Growth inhibition of human MDA-MB-435 cells incubated for 48 hrs by sulforhodamine B assay; settings: MDA-MB-435, 48 h
CCRF-CEM = test: Growth inhibition of human CCRF-CEM cells assessed as cell growth at 0.01 uM incubated for 48 hrs by sulforhodamine B assay relative to control; settings: read-out: Activity
HL-60(TB) = test: Growth inhibition of human HL-60(TB) cells assessed as cell growth at 0.01 uM incubated for 48 hrs by sulforhodamine B assay relative to control; settings: HL-60, 48 h, read-out: Activity
NCI-H226 [3] = test: Growth inhibition of human NCI-H226 cells assessed as cell growth at 0.01 uM incubated for 48 hrs by sulforhodamine B assay relative to control; settings: NCI-H226, 48 h, read-out: Activity
NCI-H23 [4] = test: Growth inhibition of human NCI-H23 cells assessed as cell growth at 0.01 uM incubated for 48 hrs by sulforhodamine B assay relative to control; settings: NCI-H23, 48 h, read-out: Activity
Malme-3M [5] = test: Growth inhibition of human MALME-3M cells assessed as cell growth at 0.01 uM incubated for 48 hrs by sulforhodamine B assay relative to control; settings: read-out: Activity
SK-MEL-2 = test: Growth inhibition of human SK-MEL-2 cells assessed as cell growth at 0.01 uM incubated for 48 hrs by sulforhodamine B assay relative to control; settings: SK-MEL-2, 48 h, read-out: Activity
SK-MEL-5 [6] = test: Growth inhibition of human SK-MEL-5 cells assessed as cell growth at 0.01 uM incubated for 48 hrs by sulforhodamine B assay relative to control; settings: SK-MEL-5, 48 h, read-out: Activity
T47D = test: Growth inhibition of human T47D cells assessed as cell growth at 0.01 uM incubated for 48 hrs by sulforhodamine B assay relative to control; settings: read-out: Activity
NCI-H322M = test: Growth inhibition of human NCI-H322M cells assessed as cell growth at 0.1 uM incubated for 48 hrs by sulforhodamine B assay relative to control; settings: read-out: Activity
NCI-H522 = test: Growth inhibition of human NCI-H522 cells assessed as cell growth at 0.1 uM incubated for 48 hrs by sulforhodamine B assay relative to control; settings: NCI-H522, 48 h, read-out: Activity
HCT-15 [7] = test: Growth inhibition of human HCT15 cells assessed as cell growth at 0.1 uM incubated for 48 hrs by sulforhodamine B assay relative to control; settings: HCT-15, 48 h, read-out: Activity
UACC-257 = test: Growth inhibition of human UACC257 cells assessed as cell growth at 0.1 uM incubated for 48 hrs by sulforhodamine B assay relative to control; settings: UACC-257, 48 h, read-out: Activity
OVCAR-3 = test: Growth inhibition of human OVCAR3 cells assessed as cell growth at 0.1 uM incubated for 48 hrs by sulforhodamine B assay relative to control; settings: OVCAR-3, 48 h, read-out: Activity
MDA-MB-231 = test: Growth inhibition of human MDA-MB-231 cells assessed as cell growth at 0.1 uM incubated for 48 hrs by sulforhodamine B assay relative to control; settings: MDA-MB-231, 48 h, read-out: Activity
NCI-H23 [8] = test: Growth inhibition of human NCI-H23 cells assessed as cell growth at 1 uM incubated for 48 hrs by sulforhodamine B assay relative to control; settings: NCI-H23, 48 h, read-out: Activity
SK-MEL-5 [9] = test: Growth inhibition of human SK-MEL-5 cells assessed as cell growth at 1 uM incubated for 48 hrs by sulforhodamine B assay relative to control; settings: SK-MEL-5, 48 h, read-out: Activity
OVCAR-5 = test: Growth inhibition of human OVCAR5 cells assessed as cell growth at 1 uM incubated for 48 hrs by sulforhodamine B assay relative to control; settings: OVCAR-5, 48 h, read-out: Activity
TK-10 = test: Growth inhibition of human TK10 cells assessed as cell growth at 1 uM incubated for 48 hrs by sulforhodamine B assay relative to control; settings: TK-10, 48 h, read-out: Activity
MDA-MB-468 = test: Growth inhibition of human MDA-MB-468 cells assessed as cell growth at 1 uM incubated for 48 hrs by sulforhodamine B assay relative to control; settings: MDA-MB-468, 48 h, read-out: Activity
A549 = test: Growth inhibition of human A549/ATCC cells assessed as cell growth at 100 uM incubated for 48 hrs by sulforhodamine B assay relative to control; settings: A549, 48 h, read-out: Activity
HCT-15 [10] = test: Growth inhibition of human HCT15 cells assessed as cell growth at 100 uM incubated for 48 hrs by sulforhodamine B assay relative to control; settings: HCT-15, 48 h, read-out: Activity
KM12 = test: Growth inhibition of human KM12 cells assessed as cell growth at 100 uM incubated for 48 hrs by sulforhodamine B assay relative to control; settings: KM12, 48 h, read-out: Activity
Malme-3M [11] = test: Growth inhibition of human MALME-3M cells assessed as cell growth at 100 uM incubated for 48 hrs by sulforhodamine B assay relative to control; settings: read-out: Activity
ACHN = test: Growth inhibition of human ACHN cells assessed as cell growth at 100 uM incubated for 48 hrs by sulforhodamine B assay relative to control; settings: read-out: Activity
[12] = read-out: LC50 (the source's name)
[13] = read-out: pLC50 (the source's name) (converted)

SMILES: c1ccc2c3c([nH]c2c1)C(c1ccc(C2NCCc4c2[nH]c2ccccc42)cc1)NCC3 (racemic)
- CC50 (RPMI-8226; [12]): 1.23 µM
- GI50 (RPMI-8226; read-out: pGI50 (converted)): 0.339 µM
- CC50 (RPMI-8226; [13]): 12.3 µM
- TGI (RPMI-8226; read-out: pTGI (converted)): 1.1 µM
- GI50 (NCI-H226 [1]; read-out: GI50): 1.96 µM
- CC50 (NCI-H226 [1]; [12]): 9.1 µM
- TGI (NCI-H226 [1]; read-out: TGI): 4.23 µM
- GI50 (NCI-H226 [1]; read-out: pGI50 (converted)): 1.95 µM
- CC50 (NCI-H226 [1]; [13]): 9.12 µM
- TGI (NCI-H226 [1]; read-out: pTGI (converted)): 4.27 µM
- GI50 (SW-620; read-out: GI50): 1.85 µM
- CC50 (SW-620; [12]): 6.39 µM
- TGI (SW-620; read-out: TGI): 3.44 µM
- GI50 (SW-620; read-out: pGI50 (converted)): 0.186 µM
- CC50 (SW-620; [13]): 0.646 µM
- GI50 (SF-295; read-out: GI50): 1.62 µM
- TGI (SF-295; read-out: TGI): 3.33 µM
- GI50 (SF-295; read-out: pGI50 (converted)): 1.62 µM
- TGI (SF-295; read-out: pTGI (converted)): 3.31 µM
- GI50 (Malme-3M [2]; read-out: GI50): 1.55 µM
- CC50 (Malme-3M [2]; [12]): 6.24 µM
- TGI (Malme-3M [2]; read-out: TGI): 3.11 µM
- GI50 (Malme-3M [2]; read-out: pGI50 (converted)): 1.55 µM
- CC50 (Malme-3M [2]; [13]): 6.17 µM
- TGI (Malme-3M [2]; read-out: pTGI (converted)): 3.09 µM
- CC50 (MDA-MB-435; [12]): 3.75 µM
- GI50 (MDA-MB-435; read-out: pGI50 (converted)): 0.363 µM
- CC50 (MDA-MB-435; [13]): 3.72 µM
- TGI (MDA-MB-435; read-out: pTGI (converted)): 1.26 µM
- growth at 0.01 µM (CCRF-CEM): 98%
- growth at 0.01 µM (HL-60(TB)): 109%
- growth at 0.01 µM (NCI-H226 [3]): 97%
- growth at 0.01 µM (NCI-H23 [4]): 95%
- growth at 0.01 µM (Malme-3M [5]): 89%
- growth at 0.01 µM (SK-MEL-2): 100%
- growth at 0.01 µM (SK-MEL-5 [6]): 99%
- growth at 0.01 µM (T47D): 82%
- growth at 0.1 µM (NCI-H322M): 91%
- growth at 0.1 µM (NCI-H522): 105%
- growth at 0.1 µM (HCT-15 [7]): 95%
- growth at 0.1 µM (UACC-257): 104%
- growth at 0.1 µM (OVCAR-3): 96%
- growth at 0.1 µM (MDA-MB-231): 97%
- growth at 1 µM (NCI-H23 [8]): 85%
- growth at 1 µM (SK-MEL-5 [9]): 94%
- growth at 1 µM (OVCAR-5): 85%
- growth at 1 µM (TK-10): 97%
- growth at 1 µM (MDA-MB-468): 11%
- growth at 100 µM (A549): 87%
- growth at 100 µM (HCT-15 [10]): 90%
- growth at 100 µM (KM12): 88%
- growth at 100 µM (Malme-3M [11]): 83%
- growth at 100 µM (ACHN): -91%

SMILES: c1ccc2[nH]c(-c3ccc(-c4nccc5c4[nH]c4ccccc45)cc3)nc2c1
- GI50 (RPMI-8226; read-out: GI50): 2.48 µM
- CC50 (RPMI-8226; [12]): > 1 µM
- TGI (RPMI-8226; read-out: TGI): 5.61 µM
- GI50 (RPMI-8226; read-out: pGI50 (converted)): 2.45 µM
- CC50 (RPMI-8226; [13]): > 100 µM
- TGI (RPMI-8226; read-out: pTGI (converted)): 5.62 µM
- GI50 (NCI-H226 [1]; read-out: GI50): 2.27 µM
- CC50 (NCI-H226 [1]; [12]): 9.73 µM
- TGI (NCI-H226 [1]; read-out: TGI): 5.56 µM
- GI50 (NCI-H226 [1]; read-out: pGI50 (converted)): 2.29 µM
- CC50 (NCI-H226 [1]; [13]): 97.7 µM
- TGI (NCI-H226 [1]; read-out: pTGI (converted)): 5.5 µM
- GI50 (SW-620; read-out: GI50): 2.79 µM
- CC50 (SW-620; [12]): > 1 µM
- TGI (SW-620; read-out: TGI): 8.48 µM
- GI50 (SW-620; read-out: pGI50 (converted)): 2.82 µM
- CC50 (SW-620; [13]): > 100 µM
- TGI (SW-620; read-out: pTGI (converted)): 8.51 µM
- GI50 (SF-295; read-out: GI50): 1.92 µM
- LC50 (SF-295; read-out: LC50): 8.34 µM
- TGI (SF-295; read-out: TGI): 4 µM
- GI50 (SF-295; read-out: pGI50 (converted)): 1.91 µM
- LC50 (SF-295; read-out: pLC50 (converted)): 8.32 µM
- TGI (SF-295; read-out: pTGI (converted)): 3.98 µM
- GI50 (Malme-3M [2]; read-out: GI50): 1.85 µM
- CC50 (Malme-3M [2]; [12]): 7.07 µM
- TGI (Malme-3M [2]; read-out: TGI): 3.61 µM
- GI50 (Malme-3M [2]; read-out: pGI50 (converted)): 1.86 µM
- CC50 (Malme-3M [2]; [13]): 7.08 µM
- TGI (Malme-3M [2]; read-out: pTGI (converted)): 3.63 µM
- GI50 (MDA-MB-435; read-out: GI50): 1.92 µM
- CC50 (MDA-MB-435; [12]): 9.51 µM
- TGI (MDA-MB-435; read-out: TGI): 4.27 µM
- GI50 (MDA-MB-435; read-out: pGI50 (converted)): 1.91 µM
- CC50 (MDA-MB-435; [13]): 9.55 µM
- TGI (MDA-MB-435; read-out: pTGI (converted)): 4.27 µM
- growth at 0.01 µM (CCRF-CEM): 102%
- growth at 0.01 µM (HL-60(TB)): 95%
- growth at 0.01 µM (NCI-H226 [3]): 93%
- growth at 0.01 µM (NCI-H23 [4]): 95%
- growth at 0.01 µM (Malme-3M [5]): 93%
- growth at 0.01 µM (SK-MEL-2): 95%
- growth at 0.01 µM (SK-MEL-5 [6]): 94%
- growth at 0.01 µM (T47D): 88%
- growth at 0.1 µM (NCI-H322M): 101%
- growth at 0.1 µM (NCI-H522): 94%
- growth at 0.1 µM (HCT-15 [7]): 97%
- growth at 0.1 µM (UACC-257): 103%
- growth at 0.1 µM (OVCAR-3): 103%
- growth at 0.1 µM (MDA-MB-231): 94%
- growth at 1 µM (NCI-H23 [8]): 88%
- growth at 1 µM (SK-MEL-5 [9]): 94%
- growth at 1 µM (OVCAR-5): 96%
- growth at 1 µM (TK-10): 96%
- growth at 1 µM (MDA-MB-468): 98%
- growth at 100 µM (A549): 58%
- growth at 100 µM (HCT-15 [10]): 71%
- growth at 100 µM (KM12): 76%
- growth at 100 µM (Malme-3M [11]): 72%
- growth at 100 µM (ACHN): 98%
